Experimental data published in paper PMC10916402, “Meropenem-ANT3310, a unique β-lactam-β-lactamase inhibitor combination with expanded antibacterial spectrum against Gram-negative pathogens including carbapenem-resistant Acinetobacter baumannii” (Antimicrobial Agents and Chemotherapy, 2024).
Converted amounts (≈) assume the structure as drawn. Like-named read-outs stand apart in the source and are kept apart here.

Columns and labels:
[1] = test system: A. baumannii ACC00445 (OXA-23); experiment: Murine lung infection model; format: in vivo, neutropenic male CD-1 mice; settings: 14-h model, MEM IV 30 mg/kg
[2] = test system: A. baumannii clinical isolates; experiment: Broth microdilution MIC, A. baumannii clinical isolates; format: cell-based, Acinetobacter baumannii; settings: for CLSI % Res / CLSI % Sus: CLSI BP; for CLSI % Res: for MEM-ANT3310 % at ≥16 µg/mL; for CLSI % Sus: for MEM-ANT3310 % inhibited at ≤8 µg/mL; for EUCAST % Res / EUCAST % Sus: EUCAST BP
Procedure, shortened: (§1)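 Broth microdilution per CLSI and EUCAST in cation-adjusted Mueller Hinton broth, iron-depleted for cefiderocol; ANT3310 panels prepared fresh on test day. Isolates collected 2018–2019, identity confirmed by MALDI-TOF. MIC taken as first well without visible growth, interpreted with 2023 CLSI and EUCAST breakpoints.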

[3] = test system: KPC-producing Enterobacterales (KPC-CRE); experiment: organism not typed; format: cell-based
Procedure, shortened: as §1

[4] = test system: OXA-producing Enterobacterales (OXA-CRE); experiment: organism not typed; format: cell-based
Procedure, shortened: as §1

[5] = test system: carbapenem-resistant Acinetobacter baumannii (CRAB) clinical isolates; experiment: Broth microdilution MIC, CRAB isolates; format: cell-based; settings: for CLSI % Res / CLSI % Sus / EUCAST % Res / EUCAST % Sus: CRAB; for CLSI % Res / CLSI % Sus: CLSI BP; for CLSI % Res: for MEM-ANT3310 % at ≥16 µg/mL; for CLSI % Sus: for MEM-ANT3310 % inhibited at ≤8 µg/mL; for EUCAST % Res / EUCAST % Sus: EUCAST BP; for MIC90: read-out: MIC90
Procedure, shortened: as §1

[6] = test system: A. baumannii ACC00445 (OXA-23); experiment: Murine thigh infection model; format: in vivo, neutropenic male CD-1 mice; settings: 9-h model, MEM 300 mg/kg IV every 2 h alone
[7] = test system: P. aeruginosa clinical isolates; experiment: Broth microdilution MIC, P. aeruginosa clinical isolates; format: cell-based, Pseudomonas aeruginosa; settings: 502 P. aeruginosa, 2019 global collection
Procedure, shortened: as §1

[8] = parameters: method as in PMID 14517194, PMID 20851549; settings: 2 g MEM q8h as a 3-h IV infusion; cited from earlier work
[9] = test system: A. baumannii ACC00445 (OXA-23); experiment: MIC against the isolate used in the infection models; format: cell-based; settings: Acinetobacter baumannii
Description: MICs for all antimicrobial agents were determined at IHMA by broth microdilution in accordance with both CLSI ([17]) and EUCAST ([18]) guidelines. Microtiter panels were prepared by IHMA and stored at −70°C in cation-adjusted Mueller Hinton broth (CAMHB) (Becton Dickinson). Iron-depleted CAMHB was used to test cefiderocol. Panels containing ANT3310 were prepared fresh on the day of testing. […] MIC values corresponded to the first well with no visible growth. Quality control testing was performed on each day of testing with E. coli ATCC 25922, P. aeruginosa ATCC 27853, K. pneumoniae ATCC 700603 and BAA 1705, and A. baumannii NCTC 13304. MICs were interpreted using 2023 CLSI ([17]) and EUCAST ([18]) BPs.

[10] = parameters: method as in PMID 32297801; settings: 2 g MEM q8h as a 3-h IV infusion, MEM-vaborbactam clinical trials; cited from earlier work
[11] = 2018 Global collection, All A. baumannii, N 500
[12] = 2019 Global collection, All A. baumannii, N 405
[13] = 180 KPC-producing Enterobacterales, EUCAST BP
[14] = 252 OXA-producing Enterobacterales, EUCAST BP
[15] = 2018 Global collection, CRAB (MEM MICs >4 µg/mL), N 363
[16] = 2019 Global collection, CRAB (MEM MICs >4 µg/mL), N 340

SMILES: C[C@@H](O)[C@H]1C(=O)N2C(C(=O)O)=C(S[C@@H]3CN[C@H](C(=O)N(C)C)C3)[C@H](C)[C@H]12 [MEM, meropenem]
- efficacy of MEM alone [1]: No efficacy
- % of isolates resistant to MEM (CLSI, MIC ≥8 µg/mL) ([2]; 905 A. baumannii isolates, overall): 78%
- MIC50 [2, 11]: >32 µg/mL
- MIC90 [2, 11]: >32 µg/mL
- Number of isolates inhibited at MIC of 0.25 µg/mL [2, 11]: 52
- Number of isolates inhibited at MIC of 0.5 µg/mL [2, 11]: 42
- Number of isolates inhibited at MIC of 1 µg/mL [2, 11]: 21
- Number of isolates inhibited at MIC of 2 µg/mL [2, 11]: 9
- Number of isolates inhibited at MIC of 4 µg/mL [2, 11]: 6
- Number of isolates inhibited at MIC of 8 µg/mL [2, 11]: 5
- Number of isolates inhibited at MIC of 16 µg/mL [2, 11]: 16
- Number of isolates inhibited at MIC of 32 µg/mL [2, 11]: 64
- Number of isolates inhibited at MIC of >32 µg/mL [2, 11]: 278
- Number of isolates inhibited at MIC of ≤0.125 µg/mL [2, 11]: 7
- CLSI % Res [2, 11]: 72.6%
- CLSI % Sus [2, 11]: 26.2%
- EUCAST % Res [2, 11]: 71.6%
- EUCAST % Sus [2, 11]: 26.2%
- MIC50 [2, 12]: >32 µg/mL
- Number of isolates inhibited at MIC of 0.25 µg/mL [2, 12]: 31
- Number of isolates inhibited at MIC of 0.5 µg/mL [2, 12]: 18
- Number of isolates inhibited at MIC of 1 µg/mL [2, 12]: 1
- Number of isolates inhibited at MIC of 2 µg/mL [2, 12]: 5
- Number of isolates inhibited at MIC of 4 µg/mL [2, 12]: 3
- Number of isolates inhibited at MIC of 8 µg/mL [2, 12]: 9
- Number of isolates inhibited at MIC of 16 µg/mL [2, 12]: 12
- Number of isolates inhibited at MIC of 32 µg/mL [2, 12]: 66
- Number of isolates inhibited at MIC of >32 µg/mL [2, 12]: 253
- Number of isolates inhibited at MIC of ≤0.125 µg/mL [2, 12]: 7
- CLSI % Res [2, 12]: 83.9%
- CLSI % Sus [2, 12]: 15.3%
- EUCAST % Res [2, 12]: 81.7%
- EUCAST % Sus [2, 12]: 15.3%
- MEM-resistance rate ([2]; A. baumannii isolates from Asia/Pacific): 74%
- MEM-resistance rate ([2]; A. baumannii isolates from Middle East): 91%
- MEM-resistance rate ([2]; A. baumannii isolates from North America): 40%
- MIC90 ([2]; Acinetobacter baumannii, 2018 Global collection, All A. baumannii, N 500, read-out: MIC90): > 32 µg/mL
- MIC90 ([2]; Acinetobacter baumannii, 2019 Global collection, All A. baumannii, N 405, read-out: MIC90): > 32 µg/mL
- MIC90 ([2]; Acinetobacter baumannii, A. baumannii, one or both of the 2018/2019 collections, read-out: MIC90): ≥ 32 µg/mL
- MIC50 ([2]; Acinetobacter baumannii, combined A. baumannii 2018–2019 collection (n = 905), ANT3310 at 8 µg/mL, read-out: MIC50): > 32 µg/mL
- MIC90 ([2]; Acinetobacter baumannii, combined A. baumannii 2018–2019 collection (n = 905), ANT3310 at 8 µg/mL, read-out: MIC90): > 32 µg/mL
- MIC50 [3]: > 32 µg/mL
- MIC90 [3]: > 32 µg/mL
- MIC90 ([3]; 180 KPC-producing Enterobacterales, 2018 global collection): >32 µg/mL
- CLSI % Res ([3]; 180 KPC-producing Enterobacterales, CLSI BP, for MEM-ANT3310 % at ≥16 µg/mL): 98.9%
- CLSI % Sus ([3]; 180 KPC-producing Enterobacterales, CLSI BP, for MEM-ANT3310 % inhibited at ≤8 µg/mL): 0%
- EUCAST % Res [3, 13]: 88.3%
- EUCAST % Sus [3, 13]: 1.1%
- MIC50 [4]: 16 µg/mL (≈ 41.7 µM)
- MIC90 [4]: > 32 µg/mL
- MIC90 ([4]; 252 OXA-producing Enterobacterales, 2018 global collection): >32 µg/mL
- CLSI % Res ([4]; 252 OXA-producing Enterobacterales, CLSI BP, for MEM-ANT3310 % at ≥16 µg/mL): 89.7%
- CLSI % Sus ([4]; 252 OXA-producing Enterobacterales, CLSI BP, for MEM-ANT3310 % inhibited at ≤8 µg/mL): 0%
- EUCAST % Res [4, 14]: 74.6%
- EUCAST % Sus [4, 14]: 10.5%
- MIC50 [5, 15]: >32 µg/mL
- Number of isolates inhibited at MIC of 8 µg/mL [5, 15]: 5
- Number of isolates inhibited at MIC of 16 µg/mL [5, 15]: 16
- Number of isolates inhibited at MIC of 32 µg/mL [5, 15]: 64
- Number of isolates inhibited at MIC of >32 µg/mL [5, 15]: 278
- CLSI % Res ([5]; 2018 Global collection, N 363): 100%
- CLSI % Sus ([5]; 2018 Global collection, N 363): 0%
- EUCAST % Res ([5]; 2018 Global collection, N 363): 98.6%
- EUCAST % Sus ([5]; 2018 Global collection, N 363): 0%
- MIC50 [5, 16]: >32 µg/mL
- Number of isolates inhibited at MIC of 8 µg/mL [5, 16]: 9
- Number of isolates inhibited at MIC of 16 µg/mL [5, 16]: 12
- Number of isolates inhibited at MIC of 32 µg/mL [5, 16]: 66
- Number of isolates inhibited at MIC of >32 µg/mL [5, 16]: 253
- CLSI % Res ([5]; 2019 Global collection, N 340): 100%
- CLSI % Sus ([5]; 2019 Global collection, N 340): 0%
- EUCAST % Res ([5]; 2019 Global collection, N 340): 97.3%
- EUCAST % Sus ([5]; 2019 Global collection, N 340): 0%
- MIC90 ([5]; Acinetobacter baumannii, 2018 Global collection, CRAB (MEM MICs >4 µg/mL), N 363): > 32 µg/mL
- MIC90 ([5]; Acinetobacter baumannii, 2019 Global collection, CRAB (MEM MICs >4 µg/mL), N 340): > 32 µg/mL
- MIC50 ([5]; Acinetobacter baumannii, CRAB isolates 2018–2019 (n = 703), ANT3310 at 8 µg/mL, read-out: MIC50): > 32 µg/mL
- MIC90 ([5]; Acinetobacter baumannii, CRAB isolates 2018–2019 (n = 703), ANT3310 at 8 µg/mL): > 32 µg/mL
- bacterial counts compared to the vehicle-treated group [6]: No reductions in bacterial counts
- Number of isolates inhibited at MIC of 0.25 µg/mL [7]: 97
- Number of isolates inhibited at MIC of 0.5 µg/mL [7]: 109
- Number of isolates inhibited at MIC of 1 µg/mL [7]: 87
- Number of isolates inhibited at MIC of 2 µg/mL [7]: 27
- Number of isolates inhibited at MIC of 4 µg/mL [7]: 25
- Number of isolates inhibited at MIC of 8 µg/mL [7]: 27
- Number of isolates inhibited at MIC of 16 µg/mL [7]: 15
- Number of isolates inhibited at MIC of 32 µg/mL [7]: 9
- Number of isolates inhibited at MIC of >32 µg/mL [7]: 26
- Number of isolates inhibited at MIC of ≤0.125 µg/mL [7]: 80
- MIC50 ([7]; Pseudomonas aeruginosa, read-out: MIC50): 0.5 µg/mL (≈ 1.3 µM)
- MIC90 ([7]; Pseudomonas aeruginosa, read-out: MIC90): 8 µg/mL (≈ 20.9 µM)
- probability of target attainment for MEM MICs ≤8 µg/mL [8]: > 90%
- MIC [9]: 64 µg/mL (≈ 167 µM)
- safety and tolerability [10]: generally safe and well tolerated
